PMC9181938, “Fluorinated Analogues of Lepidilines A and C: Synthesis and Screening of Their Anticancer and Antiviral Activity” (Molecules, 2022)
Like-named read-outs stand apart in the source and are kept apart here.

Key:
[1] = Cytotoxicity MTT assay (0.1–1000 µM), CC50; assay type: cell-based, Mus musculus; details: Mus musculus, NCTC clone 929 cells, Table S2, range 0.1-1000 µM, NCTC clone 929; read-out: Cell line (CC50 M) NCTC clone 929
[2] = Cytotoxicity screening at 10 µM (MTT); assay type: cell-based, Macaca mulatta; details: Macaca mulatta, LLC-MK2 cells, read-out: Cell line (viability %) LLC-MK2
[3] = Cytotoxicity screening at 10 µM (MTT); assay type: cell-based, Human; details: human, HeLa cells, read-out: Cell line (viability %) HeLa
[4] = system: Human herpesvirus 1 (HSV-1); test: Antiviral screening at 10 µM; assay type: cell-based; details: Human alphaherpesvirus 1, antiviral screening, HSV-1-infected cells, read-out: Cell line (viability %) HSV-1
Procedure, shortened: (§1)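 Infected Vero, LLC-MK2, NCTC 929 or HeLa cell monolayers (MOI 0.005; HPIV-3 MOI 0.01) were treated after 1-h adsorption with compounds at 10 µM (0.1% DMSO). Cultures were incubated at 37 °C until cytopathic effect was visible. Viral infection was scored by MTT assay (OD 550/670 nm), in triplicate.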

[5] = system: Human parainfluenza virus type 3 (HPIV-3); test: Antiviral screening at 10 µM; assay type: cell-based; details: Human respirovirus 3, antiviral screening, HPIV-3-infected cells, read-out: Cell line (viability %) HPIV-3
Procedure, shortened: as §1

[6] = system: Human adenovirus 5 (AdV5); test: Antiviral screening at 10 µM; assay type: cell-based; details: Human mastadenovirus C, AdV5-infected cells, read-out: Cell line (viability %) AdV5
Procedure, shortened: as §1

[7] = system: Encephalomyocarditis virus (EMCV); test: Antiviral screening at 10 µM; assay type: cell-based; details: Cardiovirus A, EMCV-infected cells, read-out: Cell line (viability %) EMCV
Procedure, shortened: as §1

[8] = Cytotoxicity screening at 10 µM (MTT); assay type: cell-based, Mus musculus; details: Mus musculus, NCTC clone 929 cells, read-out: Cell line (viability %) NCTC clone 929
[9] = Cytotoxicity screening at 10 µM (MTT); assay type: cell-based, Human; details: human, MRC-5 cells, read-out: Cell line (viability %) MRC-5
[10] = Cytotoxicity MTT assay (0.1–1000 µM), CC50; assay type: cell-based, Macaca mulatta; details: Macaca mulatta, LLC-MK2 cells

Cc1c(C)n(Cc2ccccc2)c(=S)n1Cc1ccccc1 [Compound 10a]
CC50 at 48 h [1]: 46 ± 6.93 µM | viability at 48 h, 10 µM [2]: 64.9% | viability at 48 h, 10 µM [3]: 61.1% | viability at 10 µM [4]: 29.7% | viability at 10 µM [5]: 69.2% | viability at 10 µM [6]: 62% | viability at 10 µM [7]: 79.6% | viability at 48 h, 10 µM [8]: 93.8% | viability at 48 h, 10 µM [9]: 74.3% | CC50 at 48 h ([10]; LLC-MK2, MTT, 48 h, read-out: CC50 Normal Cell Lines LLC-MK2): < 20 µM | CC50 at 48 h ([10]; Table S2, range 0.1-1000 µM, LLC-MK2, read-out: Cell line (CC50 M) LLC-MK2): 16.2 ± 3.75 µM
